# From ChEMBL document CHEMBL5390226, “Synthesis and Staphylococcus aureus biofilm inhibitory activity of indolenine-substituted pyrazole and pyrimido[1,2-b]indazole derivatives” (Bioorg Med Chem, 2023)
# The source made the active and inactive calls. No cut-off for these calls is given here.
# Legend:
# Staphylococcus aureus [1] = assay: Antibiofilm activity against methicillin-susceptible Staphylococcus aureus ATCC 29213 assessed as inhibition of biofilm formation incubated for 24 hrs by crystal violet staining based analysis; assay type: functional; settings: dose 1.56-100 µg/ml
# Staphylococcus aureus [2] = assay: Antibiofilm activity against methicillin-resistant Staphylococcus aureus ATCC 33591 assessed as biofilm eradication incubated for 24 hrs by crystal violet staining based analysis; assay type: functional
# Staphylococcus aureus [3] = assay: Antibiofilm activity against methicillin-susceptible Staphylococcus aureus ATCC 29213 assessed as biofilm eradication incubated for 24 hrs by crystal violet staining based analysis; assay type: functional
# Staphylococcus aureus [4] = assay: Antibiofilm activity against methicillin-resistant Staphylococcus aureus ATCC 33591 assessed as inhibition of biofilm formation incubated for 24 hrs by crystal violet staining based analysis; assay type: functional; settings: dose 1.56-100 µg/ml
# Staphylococcus aureus [5] = assay: Antibacterial activity against methicillin-resistant Staphylococcus aureus ATCC ATCC 33591 assessed as planktonic growth inhibition at 25 to 50 ug/mL incubated for 24 hrs; assay type: functional, organism-based; settings: dose 25-50 µg/ml
# [6] = Cytotoxicity against human A549 cells assessed as inhibition of cell growth measured after 48 hrs by MTT assay; assay type: toxicity, cell-based
# Staphylococcus aureus [7] = assay: Antibiofilm activity against methicillin-susceptible Staphylococcus aureus ATCC 29213 assessed as disruption of biofilm incubated for 24 hrs by crystal violet staining based inverted microscopic analysis; assay type: functional, organism-based; settings: dose 1.56-12.5 µg/ml
# Staphylococcus aureus [8] = assay: Antibiofilm activity against methicillin-resistant Staphylococcus aureus ATCC 33591 assessed as disruption of biofilm incubated for 24 hrs by crystal violet staining based inverted microscopic analysis; assay type: functional, organism-based; settings: dose 1.56-12.5 µg/ml
# Staphylococcus aureus [9] = assay: Antibacterial activity against methicillin-resistant Staphylococcus aureus ATCC 33591 assessed as MBC to MIC ratio; assay type: functional
# Staphylococcus aureus [10] = assay: Antibacterial activity against methicillin-resistant Staphylococcus aureus ATCC 33591 assessed as bacterial growth inhibition incubated for 24 hrs by CLSI based microbroth dilution method; assay type: functional
# Staphylococcus aureus [11] = assay: Antibacterial activity against methicillin-susceptible Staphylococcus aureus ATCC 29213 assessed as planktonic growth inhibition at 25 to 50 ug/mL incubated for 24 hrs; assay type: functional, organism-based; settings: dose 25-50 µg/ml
# Staphylococcus aureus [12] = assay: Antibacterial activity against methicillin-susceptible Staphylococcus aureus ATCC 29213 assessed as bacterial growth inhibition incubated for 24 hrs by CLSI based microbroth dilution method; assay type: functional
SMILES,MBIC50 (Staphylococcus aureus [1]),MBEC50 (Staphylococcus aureus [3]) [µg/mL],MBIC50 (Staphylococcus aureus [4]),also measured
CC1(C)C(c2cnn(-c3ccc(C(=O)Nc4ccccc4)cc3)c2)=Nc2ccccc21,>100 µg/mL,,,
Cc1ccc(CNC(=O)c2ccc(-n3cc(C4=Nc5ccccc5C4(C)C)cn3)cc2)cc1,>100 µg/mL,,,
CCOC(=O)c1ccc2c(c1)C(C)(C)C(c1cnc3c4ccc(C(F)(F)F)cc4nn3c1)=N2,100 µg/mL,>100,,MBEC50 (Staphylococcus aureus [2]): 100 µg/mL
CC1(C)C(c2cnn(-c3ccc(C(=O)O)cc3)c2)=Nc2ccccc21,6.25 µg/mL,>100,50 µg/mL,
CC1(C)C(c2cnn(-c3ccc(C(=O)Nc4ccc(Cl)cc4)cc3)c2)=Nc2ccccc21,>100 µg/mL,,,
COc1ccc(NC(=O)c2ccc(-n3cc(C4=Nc5ccccc5C4(C)C)cn3)cc2)cc1,>100 µg/mL,,,
COc1ccc2c(c1)C(C)(C)C(c1cnc3c4ccccc4nn3c1)=N2,>100 µg/mL,>100,50 µg/mL,
CC1(C)C(c2cnn(-c3ccc(C(=O)NCc4ccc(F)cc4)cc3)c2)=Nc2ccccc21,>100 µg/mL,,,
CC1(C)C(c2cnc3c4ccccc4nn3c2)=Nc2ccc3ccccc3c21,>100 µg/mL,>100,50 µg/mL,
CCOC(=O)c1ccc2c(c1)C(C)(C)C(c1cnc3c4ccccc4nn3c1)=N2,>100 µg/mL,>100,100 µg/mL,
CCOC(=O)c1ccc2c(c1)C(C)(C)C(c1cnc3c4c(OC)cccc4nn3c1)=N2,>100 µg/mL,>100,12.5 µg/mL,
CC1(C)C(c2cnc3c4ccc(C(F)(F)F)cc4nn3c2)=Nc2c1ccc1ccccc21,>100 µg/mL,>100,100 µg/mL,
Cc1ccccc1NC(=O)c1ccc(-n2cc(C3=Nc4ccccc4C3(C)C)cn2)cc1,>100 µg/mL,,,
CC1(C)C(c2cnn(-c3ccc(C(=O)Nc4ccc(Cl)cc4)cc3)c2)=Nc2ccc3ccccc3c21,>100 µg/mL,,,
CC1(C)C(c2cnn(-c3ccc(C(=O)O)cc3)c2)=Nc2ccc3ccccc3c21,<=1.56 ug ml-1,12.5,3.13 µg/mL,MBEC50 (Staphylococcus aureus [2]): 6.25 µg/mL; inhibition (Staphylococcus aureus [5]): Active; inhibition (Staphylococcus aureus [1]): Dose-Dependent Effect; IC50 at 48 h [6]: > 100 µg/mL; Activity (Staphylococcus aureus [7]): Dose-Dependent Effect; Activity (Staphylococcus aureus [8]): Dose-Dependent Effect; inhibition (Staphylococcus aureus [4]): Dose-Dependent Effect; Ratio (Staphylococcus aureus [9]): >4; MIC (Staphylococcus aureus [10]): 25 µg/mL; inhibition (Staphylococcus aureus [11]): Active; MIC (Staphylococcus aureus [12]): 25 µg/mL
CN(C)c1ccccc1NC(=O)c1ccc(-n2cc(C3=Nc4ccccc4C3(C)C)cn2)cc1,>100 µg/mL,,,
CC1(C)C(c2cnn(-c3ccc(C(=O)Nc4ccc(F)cc4)cc3)c2)=Nc2ccccc21,>100 µg/mL,,,
CC1(C)C(c2cnc3c4ccc(C(F)(F)F)cc4nn3c2)=Nc2ccc3ccccc3c21,50 µg/mL,>100,,
Oc1cc(Cl)ccc1Oc1ccc(Cl)cc1Cl [TRICLOSAN],<=1.56 ug ml-1,3.13,<=1.56 ug ml-1,MBEC50 (Staphylococcus aureus [2]): 6.25 µg/mL
COc1ccc2c(c1)C(C)(C)C(c1cnc3c4ccc(Br)cc4nn3c1)=N2,>100 µg/mL,>100,,
CC1(C)C(c2cnn(-c3ccc(C(=O)Nc4ccc(F)cc4)cc3)c2)=Nc2ccc3ccccc3c21,>100 µg/mL,,,
CC1(C)C(c2cnc3c4ccc(C(F)(F)F)cc4nn3c2)=Nc2ccccc21,100 µg/mL,>100,12.5 µg/mL,
CC1(C)C(c2cnn(-c3ccc(C(=O)Nc4ccncc4)cc3)c2)=Nc2ccccc21,>100 µg/mL,,,
N=C(NCCCCCCNC(=N)NC(=N)Nc1ccc(Cl)cc1)NC(=N)Nc1ccc(Cl)cc1 [CHLORHEXIDINE],3.13 µg/mL,12.5,<=1.56 ug ml-1,MBEC50 (Staphylococcus aureus [2]): 3.13 µg/mL

SMILES,MBIC50 (Staphylococcus aureus [1]),MBEC50 (Staphylococcus aureus [3]) [µg/mL],MBIC50 (Staphylococcus aureus [4]),also measured
COc1cccc2nn3cc(C4=Nc5ccc6ccccc6c5C4(C)C)cnc3c12,>100 µg/mL,>100,,MBEC50 (Staphylococcus aureus [2]): 100 µg/mL
COc1ccc2c(c1)C(C)(C)C(c1cnc3c4c(OC)cccc4nn3c1)=N2,>100 µg/mL,>100,25 µg/mL,
CC1(C)C(c2cnc3c4ccccc4nn3c2)=Nc2ccccc21,>100 µg/mL,100,100 µg/mL,MBEC50 (Staphylococcus aureus [2]): >100 µg/mL
CC1(C)C(c2cnn(-c3ccccc3)c2)=Nc2ccc(C(=O)O)cc21,12.5 µg/mL,>100,<=1.56 ug ml-1,MBEC50 (Staphylococcus aureus [2]): 25 µg/mL; IC50 at 48 h [6]: > 100 µg/mL
CC1(C)C(c2cnn(-c3ccc(C(=O)Nc4ccncc4)cc3)c2)=Nc2ccc3ccccc3c21,>100 µg/mL,,,
CC1(C)C(c2cnn(-c3ccc(C(=O)NCc4ccccc4)cc3)c2)=Nc2ccccc21,>100 µg/mL,,,
CC1(C)C(c2cnc3c4ccccc4nn3c2)=Nc2c1ccc1ccccc21,25 µg/mL,>100,6.25 µg/mL,
CC1(C)C(c2cnn(-c3ccc(C(=O)NCCc4ccccc4)cc3)c2)=Nc2ccccc21,>100 µg/mL,,,
CC1(C)C(c2cnn(-c3ccc(C(=O)NC4CCCCC4)cc3)c2)=Nc2ccccc21,>100 µg/mL,,,
COc1cccc2nn3cc(C4=Nc5ccccc5C4(C)C)cnc3c12,50 µg/mL,>100,>100 µg/mL,
CC1(C)C(c2cnn(-c3ccc(C(=O)NCCc4ccccc4)cc3)c2)=Nc2ccc3ccccc3c21,>100 µg/mL,,,
CC1(C)C(c2cnc3c4ccc(Br)cc4nn3c2)=Nc2ccccc21,>100 µg/mL,>100,100 µg/mL,
CC1(C)C(c2cnn(-c3ccc(C(=O)O)cc3)c2)=Nc2ccc(Cl)cc21,6.25 µg/mL,12.5,,MBEC50 (Staphylococcus aureus [2]): 50 µg/mL; IC50 at 48 h [6]: > 100 µg/mL
COc1ccc2c(c1)C(C)(C)C(c1cnc3c4ccc(C(F)(F)F)cc4nn3c1)=N2,100 µg/mL,>100,,MBEC50 (Staphylococcus aureus [2]): 100 µg/mL
CCOC(=O)c1ccc2c(c1)C(C)(C)C(c1cnc3c4ccc(Br)cc4nn3c1)=N2,>100 µg/mL,>100,,
COc1ccc2c(c1)C(C)(C)C(c1cnn(-c3ccc(C(=O)O)cc3)c1)=N2,12.5 µg/mL,>100,100 µg/mL,
COc1cccc2nn3cc(C4=Nc5c(ccc6ccccc56)C4(C)C)cnc3c12,12.5 µg/mL,>100,,
Cc1ccc(NC(=O)c2ccc(-n3cc(C4=Nc5ccccc5C4(C)C)cn3)cc2)cc1,>100 µg/mL,,,
CCCCNC(=O)c1ccc(-n2cc(C3=Nc4ccccc4C3(C)C)cn2)cc1,>100 µg/mL,,,
CC1(C)C(c2cnc3c4ccc(Br)cc4nn3c2)=Nc2c1ccc1ccccc21,>100 µg/mL,>100,50 µg/mL,
CC1(C)C(c2cnc3c4ccc(Br)cc4nn3c2)=Nc2ccc3ccccc3c21,>100 µg/mL,>100,,
CC1(C)C(c2cnn(-c3ccc(C(=O)NCc4ccc(F)cc4)cc3)c2)=Nc2ccc3ccccc3c21,>100 µg/mL,,,
CC1(C)C(c2cnn(-c3ccc(C(=O)NCc4cccnc4)cc3)c2)=Nc2ccccc21,>100 µg/mL,,,
